In general, EC50 refers to the concentration that produces a half-maximal response. A lower EC50 goes with greater potency.

In this assay the target is T1, human S1P1 receptor (Homo sapiens, UniProt P21453).
T1 construct: expressed in transfected cells; membranes used
T1 sequence (P21453 whole entry): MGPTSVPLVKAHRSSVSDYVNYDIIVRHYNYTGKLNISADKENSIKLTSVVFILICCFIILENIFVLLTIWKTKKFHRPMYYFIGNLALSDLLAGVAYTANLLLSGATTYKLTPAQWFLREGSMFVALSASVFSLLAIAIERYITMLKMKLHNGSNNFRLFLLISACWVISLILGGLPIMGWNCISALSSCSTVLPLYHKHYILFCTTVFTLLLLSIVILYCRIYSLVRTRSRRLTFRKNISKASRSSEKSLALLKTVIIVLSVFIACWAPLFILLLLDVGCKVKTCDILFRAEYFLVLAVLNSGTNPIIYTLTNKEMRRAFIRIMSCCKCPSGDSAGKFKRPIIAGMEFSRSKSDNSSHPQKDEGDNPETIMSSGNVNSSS
Nature of the assay: GTP γ35S binding assay for S1P1 activity. The conditions noted are these: activity potency, S1P1 receptor from GTP γ35S binding; membranes of cells stably expressing the S1P1 receptor. Type of assay: biochemical. Here is the method:
Compounds were synthesized and tested for S1P1 activity using the GTP γ^35S binding assay. These compounds may be assessed for their ability to activate or block activation of the human S1P1 receptor in cells stably expressing the S1P1 receptor.
GTP γ^35S binding was measured in the medium containing (mM) HEPES 25, pH 7.4, MgCl2 10, NaCl 100, dithiothreitol 0.5, digitonin 0.003%, 0.2 nM GTP γ^35S, and 5 μg membrane protein in a volume of 150 μl. Test compounds were included in the concentration range from 0.08 to 5,000 nM unless indicated otherwise. Membranes were incubated with 100 μM 5′-adenylylimidodiphosphate for 30 min, and subsequently with 10 μM GDP for 10 min on ice. Drug solutions and membrane were mixed, and then reactions were initiated by adding GTP γ^35S and continued for 30 min at 25° C. Reaction mixtures were filtered over Whatman GF/B filters under vacuum, and washed three times with 3 mL of ice-cold buffer (HEPES 25, pH7.4, MgCl2 10 and NaCl 100). Filters were dried and mixed with scintillant, and counted for ^35S activity using a β-counter. Agonist-induced GTP γ^35S binding was obtained by subtracting that in the absence of agonist. Binding data were analyzed using a non-linear regression method. In case of antagonist assay, the reaction mixture contained 10 nM […] in the presence of test antagonist at concentrations ranging from 0.08 to 5000 nM.
A general note: GTPγS is a poorly hydrolysed GTP analogue; its binding reports G protein activation.
Compound `CCCCCC(CCCOc1ccc(CNCCCP(=O)(O)O)cc1)Cc1ccc(C)c(C)c1` (centres unmarked) [Compound 1, {3-[(4-{[4-(3,4-Dimethylbenzyl)nonyl]oxy}benzyl)amino]propyl}phosphonic acid] returned an EC50 of 5.18 nM.
Turning to `CCCCC(CCCOc1ccc(CNCCCP(=O)(O)O)cc1)Cc1ccc(C)c(C)c1` (centres unmarked) [Compound 2, {3-[(4-{[4-(3,4-Dimethylbenzyl)octyl]oxy}benzyl)amino]propyl}phosphonic acid], the EC50 was 12.9 nM.
Under `CCCCC(CCCOc1ccc(CNCCC(=O)O)cc1)Cc1ccc(C)c(C)c1` (centres unmarked) [Compound 3, 3-[(4-{[4-(3,4-Dimethylbenzyl)octyl]oxy}benzyl)amino]propanoic acid] stands 5 nM; under `CCCC(CCCOc1ccc(CNCCCP(=O)(O)O)cc1)Cc1ccc(C)c(C)c1` (centres unmarked) [Compound 4, {3-[(4-{[4-(3,4-Dimethylbenzyl)heptyl]oxy}benzyl)amino]propyl}phosphonic acid], 120 nM; under `CCCC(CCCOc1ccc(CNCCC(=O)O)cc1)Cc1ccc(C)c(C)c1` (centres unmarked) [Compound 5, 3-[(4-{[4-(3,4-Dimethylbenzyl)heptyl]oxy}benzyl)amino]propanoic acid], 4.68 nM.
Take `CCC(CCCOc1ccc(CNCCCP(=O)(O)O)cc1)Cc1ccc(C)c(C)c1` (centres unmarked) [Compound 6, {3-[(4-{[4-(3,4-Dimethylbenzyl)hexyl]oxy}benzyl)amino]propyl}phosphonic acid]: the EC50 was determined as 21.4 nM.
The compound `CCC(CCCOc1ccc(CNCCC(=O)O)cc1)Cc1ccc(C)c(C)c1` (centres unmarked) [Compound 7, 3-[(4-{[4-(3,4-Dimethylbenzyl)hexyl]oxy}benzyl)amino]propanoic acid] showed an EC50 of 11.4 nM.
As for `CCCCCC(CCCOc1ccc(CNCCC(=O)O)cc1)Cc1ccc(C)c(C)c1` (centres unmarked) [Compound 10, 3-[(4-{[4-(3,4-Dimethylbenzyl)nonyl]oxy}benzyl)amino]propanoic acid], the EC50 was 7.46 nM.
On to `CCCCC(CCCOc1c(C)cc(CNCCCP(=O)(O)O)cc1C)Cc1ccc(C)c(C)c1` (centres unmarked) [Compound 11, {3-[(4-{[4-(3,4-Dimethylbenzyl)octyl]oxy}-3,5-dimethylbenzyl)amino]propyl}phosphonic acid], for which it took 18.9 nM to reach a half-maximal effect (EC50).
The compound `CCCCC(CCCOc1c(C)cc(CNCCC(=O)O)cc1C)Cc1ccc(C)c(C)c1` (centres unmarked) [Compound 12, 3-[(4-{[4-(3,4-dimethylbenzyl)octyl]oxy}-3,5-dimethylbenzyl)amino]propanoic acid] registered an EC50 of 9.84 nM.
Consider `CCCCC(CCCOc1ccc(CNCCCP(=O)(O)O)cc1C)Cc1ccc(C)c(C)c1` (centres unmarked) [Compound 13, {3-[(4-{[4-(3,4-Dimethylbenzyl)octyl]oxy}-3-methylbenzyl)amino]propyl}phosphonic acid], for which the EC50 came out at 6.54 nM.
As for `CCCCC(CCCOc1ccc(CNCCC(=O)O)cc1C)Cc1ccc(C)c(C)c1` (centres unmarked) [Compound 14, 3-[(4-{[4-(3,4-Dimethylbenzyl)octyl]oxy}-3-methylbenzyl)amino]propanoic acid], the midpoint of the response, the EC50, lay at 6.02 nM.
In turn, `CCCCC(CCCOc1ccc(CNCCCP(=O)(O)O)cc1Br)Cc1ccc(C)c(C)c1` (centres unmarked) [Compound 15, {3-[(3-Bromo-4-{[4-(3,4-dimethylbenzyl)octyl]oxy}benzyl)amino]propyl}phosphonic acid] yielded an EC50 of 2.29 nM.
Under `CCCCC(CCCOc1ccc(CNCCC(=O)O)cc1Br)Cc1ccc(C)c(C)c1` (centres unmarked) [Compound 16, 3-[(3-Bromo-4-{[4-(3,4-dimethylbenzyl)octyl]oxy}benzyl)amino]propanoic acid] stands 4.19 nM.
Take `CCCCC(CCCOc1ccc(CNCCCP(=O)(O)O)cc1Cl)Cc1ccc(C)c(C)c1` (centres unmarked) [Compound 17, {3-[(3-Chloro-4-{[4-(3,4-dimethylbenzyl)octyl]oxy}benzyl)amino]propyl}phosphonic acid]: the EC50 is 1.34 nM.
On to `CCCCC(CCCOc1ccc(CNCCC(=O)O)cc1Cl)Cc1ccc(C)c(C)c1` (centres unmarked) [Compound 18, 3-[(3-Chloro-4-{[4-(3,4-dimethylbenzyl)octyl]oxy}benzyl)amino]propanoic acid], for which the EC50 amounted to 1.25 nM.
In the case of `CCCCC(CCCOc1c(F)cc(CNCCCP(=O)(O)O)cc1OC)Cc1ccc(C)c(C)c1` (centres unmarked) [Compound 19, {3-[(4-{[4-(3,4-dimethylbenzyl)octyl]oxy}-3-fluoro-5-methoxybenzyl)amino]propyl}phosphonic acid], the EC50 was found to be 0.33 nM.
On to `CCCCC(CCCOc1c(F)cc(CNCCC(=O)O)cc1OC)Cc1ccc(C)c(C)c1` (centres unmarked) [Compound 20, 3-[(4-{[4-(3,4-Dimethylbenzyl)octyl]oxy}-3-fluoro-5-methoxybenzyl)amino]propanoic acid], for which the EC50 turned out to be 2.7 nM.
With `CCCCC(CCCOc1ccc(CNCCCP(=O)(O)O)cc1F)Cc1ccc(C)c(C)c1` (centres unmarked) [Compound 21, {3-[(4-{[4-(3,4-Dimethylbenzyl)octyl]oxy}-3-fluorobenzyl)amino]propyl}phosphonic acid], the EC50 was 2.35 nM.
`CCCCC(CCCOc1ccc(CNCCC(=O)O)cc1F)Cc1ccc(C)c(C)c1` (centres unmarked) [Compound 22, 3-[(4-{[4-(3,4-Dimethylbenzyl)octyl]oxy}-3-fluorobenzyl)amino]propanoic acid]: the midpoint of the response, the EC50, lay at 15.7 nM.
The compound `CCCCCC(CCCOc1c(C)cc(CNCCCP(=O)(O)O)cc1C)Cc1ccc(C)c(C)c1` (centres unmarked) [Compound 23, {3-[(4-{[4-(3,4-Dimethylbenzyl)nonyl]oxy}-3,5-dimethylbenzyl)amino]propyl}phosphonic acid] showed an EC50 of 11.9 nM.
Then `CCCCCC(CCCOc1ccc(CNCCCP(=O)(O)O)cc1Cl)Cc1ccc(C)c(C)c1` (centres unmarked) [Compound 25, {3-[(3-Chloro-4-{[4-(3,4-dimethylbenzyl)nonyl]oxy}benzyl)amino]propyl}phosphonic acid], with 4.83 nM; and `CCCCCC(CCCOc1ccc(CNCCC(=O)O)cc1Cl)Cc1ccc(C)c(C)c1` (centres unmarked) [Compound 26, 3-[(3-Chloro-4-{[4-(3,4-dimethylbenzyl)nonyl]oxy}benzyl)amino]propanoic acid], with 11.8 nM.
`CCCC(CCCOc1ccc(CNCCCP(=O)(O)O)cc1Cl)Cc1ccc(C)c(C)c1` (centres unmarked) [Compound 27, {3-[(3-chloro-4-{[4-(3,4-dimethylbenzyl)heptyl]oxy}benzyl)amino]propyl}phosphonic acid] gave an EC50 of 10.9 nM.
Regarding `CCCC(CCCOc1ccc(CNCCC(=O)O)cc1Cl)Cc1ccc(C)c(C)c1` (centres unmarked) [Compound 28, 3-[(3-Chloro-4-{[4-(3,4-dimethylbenzyl)heptyl]oxy}benzyl)amino]propanoic acid], the EC50 turned out to be 54 nM.
In turn, `CCCC(CCCOc1c(C)cc(CNCCCP(=O)(O)O)cc1C)Cc1ccc(C)c(C)c1` (centres unmarked) [Compound 29, {3-[(4-{[4-(3,4-Dimethylbenzyl)heptyl]oxy}-3,5-dimethylbenzyl)amino]propyl}phosphonic acid] yielded an EC50 of 328 nM.
Compound `CCCC(CCCOc1c(C)cc(CNCCC(=O)O)cc1C)Cc1ccc(C)c(C)c1` (centres unmarked) [Compound 30, 3-[(4-{[4-(3,4-Dimethylbenzyl)heptyl]oxy}-3,5-dimethylbenzyl)amino]propanoic acid] came in with an EC50 of 27.1 nM.
Compound `CCCC(CCCOc1ccc(CNCCCP(=O)(O)O)cc1C)Cc1ccc(C)c(C)c1` (centres unmarked) [Compound 31, {3-[(4-{[4-(3,4-Dimethylbenzyl)heptyl]oxy}-3-methylbenzyl)amino]propyl}phosphonic acid] came in with an EC50 of 7.89 nM.
With `CCCC(CCCOc1ccc(CNCCC(=O)O)cc1C)Cc1ccc(C)c(C)c1` (centres unmarked) [Compound 32, 3-[(4-{[4-(3,4-Dimethylbenzyl)heptyl]oxy}-3-methylbenzyl)amino]propanoic acid], the EC50 is 35.2 nM.
